Literature values, collected in patent publication US20250000872A1, “FORMULATIONS AND DOSING REGIMENS FOR RIP1 KINASE INHIBITORS FOR TREATING AUTOIMMUNE AND INFLAMMATORY DISEASES” (Eli Lilly and Company, priority 2023, published 2025).

Key:
[1] = system: patients with mild-to-moderate active plaque-type psoriasis; conditions: 60 mg orally b.i.d. and 60 mg orally t.i.d.; cited from earlier work
[2] = modified release formulations, fasted state; not maintained with standard or high-fat meal; cited from earlier work
[3] = system: patients with moderate to severe RA; conditions: 60 mg orally b.i.d. and t.i.d. for up to 84 days; cited from earlier work
UC = conditions: 60 mg orally t.i.d. for up to 84 days; cited from earlier work

## CN1C(=O)[C@@H](NC(=O)c2nnc(Cc3ccccc3)[nH]2)COc2ccccc21 [GSK2982772, 5-Benzyl-N-[(3S)-5-methyl-4-oxo-2,3-dihydro-1,5-benzoxazepin-3-yl]-1H-1,2,4-triazole-3-carboxamide]
[1]
  clinical improvement over placebo: limited
[2]
  GSK2982772 released over 12 h: 80%
[3]
  difference over placebo in disease activity, radiological progression, or inflammatory markers: No significant difference
UC
  histological disease activity or clinical efficacy compared with placebo: does not lead to differences
